These results are taken from PMC6606608, “Chemical logic of MraY inhibition by antibacterial nucleoside natural products” (Nature Communications, 2019).

For experiment [1], the target named is T1, MraYAA (phospho-MurNAc-pentapeptide translocase, MraY) (Aquifex aeolicus, UniProt O66465).
T1 construct: Codon-optimized His-MBP-PreScission fusion, E. coli C41(DE3), DDM-extracted, tag cleaved; IC50 on MraYAA alone (NB7 only in crystals)
T1 sequence (O66465 1-359): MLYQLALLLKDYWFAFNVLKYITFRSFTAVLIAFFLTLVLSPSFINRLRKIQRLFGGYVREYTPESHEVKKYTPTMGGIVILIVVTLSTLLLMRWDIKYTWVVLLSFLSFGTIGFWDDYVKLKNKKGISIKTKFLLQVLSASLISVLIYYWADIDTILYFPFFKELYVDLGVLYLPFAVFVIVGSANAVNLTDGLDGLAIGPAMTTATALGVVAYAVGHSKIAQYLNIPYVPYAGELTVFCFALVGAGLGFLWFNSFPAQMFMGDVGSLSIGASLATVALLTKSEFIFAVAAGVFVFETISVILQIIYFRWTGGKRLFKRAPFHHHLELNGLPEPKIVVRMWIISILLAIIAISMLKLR
The experiment in a line: X-ray crystal structure ([…] Å); UMP-Glo enzyme inhibition IC50. Type of experiment: biochemical.

Experiment [2] addresses T1, MraYAA (phospho-MurNAc-pentapeptide translocase, MraY). Described as above. Type of experiment: biochemical. This is another data set of the same source.

Where two headings read alike, the source gives them in different places.

Broadly, the IC50 is the midpoint of a concentration-inhibition curve. A higher IC50 goes with weaker potency in that assay. In the case of `CO[C@H]1[C@@H](O)[C@H](n2ccc(=O)[nH]c2=O)O[C@@H]1[C@@H](O[C@H]1OC(C(=O)N[C@H]2CCCCNC2=O)=C[C@H](O)[C@@H]1O)C(N)=O` [capuramycin], in experiment [1], the IC50 was found to be 0.185 µM.

Consider `CSCC[C@H](NC(=O)N[C@@H](Cc1cccc(O)c1)C(=O)O)C(=O)N[C@H](C(=O)N/C=C1/O[C@@H](n2ccc(=O)[nH]c2=O)[C@H](O)[C@@H]1O)[C@H](C)N(C)C(=O)[C@@H](N)Cc1cccc(O)c1` [3′-hydroxymureidomycin A], for which the IC50 in experiment [2] turned out to be 0.052 µM.
